Measured values from the supplement of paper PMC10307832.

Experiments:
Assay in all cases: relative viability (nuclei count vs DMSO), 5 days (fraction); higher = more cells survive
[1] = test system: NCI-H727
In short: (§1)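 Lung cancer cell lines were seeded in 1536-well plates and dosed by pin tool the next day, with either a single drug or a fixed anchor-drug dose combined with five library-drug doses (not always all listed) spaced in √10 steps. Five days later, one step fixed the cells and stained their nuclei (final 0.05% Triton X-100, 1% formaldehyde, 1 ug/ml Hoechst), and nuclei were counted on 4× images. Relative viability is the nuclei count in treated wells divided by the count in vehicle wells, and each value is the median of duplicate plates.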

[2] = test system: COR-L 105
In short: as §1

[3] = test system: ABC-1
In short: as §1

[4] = test system: HCC-366
In short: as §1

[5] = test system: NCI-H2009
In short: as §1

[6] = test system: HARA
In short: as §1

[7] = test system: LU99A
In short: as §1

[8] = test system: LK-2
In short: as §1

[9] = test system: NCI-H2170
In short: as §1

[10] = test system: NCI-H1437
In short: as §1

[11] = test system: EKVX
In short: as §1

[12] = test system: NCI-H1650
In short: as §1

[13] = test system: BEN
In short: as §1

[14] = test system: 201T
In short: as §1

[15] = test system: PC-14
In short: as §1

[16] = test system: NCI-H661
In short: as §1

[17] = test system: CAL-12T
In short: as §1

[18] = test system: NCI-H3122
In short: as §1

[19] = test system: COR-L23
In short: as §1

[20] = test system: NCI-H1666
In short: as §1

[21] = test system: NCI-H838
In short: as §1

Q: What does the source list for `O=C(O)c1ccc(-c2c[nH]c3ncc(-c4ccccc4)cc23)cc1C1CCCC1` + CS(=O)(=O)CCNCc1ccc(-c2ccc3ncnc(Nc4ccc(OCc5cccc(F)c5)c(Cl)c4)c3c2)o1 [Lapatinib] (partner 2 µM)?
A: relative viability ([1]; first compound 0.04 µM): 0.955; relative viability ([1]; first compound 0.1265 µM): 1; relative viability ([1]; first compound 0.4 µM): 0.876; relative viability ([1]; first compound 1.265 µM): 1.16; relative viability ([2]; first compound 0.04 µM): 0.363; relative viability ([2]; first compound 0.1265 µM): 0.401; relative viability ([2]; first compound 0.4 µM): 0.347; relative viability ([2]; first compound 1.265 µM): 0.371; relative viability ([3]; first compound 0.04 µM): 1.05; relative viability ([3]; first compound 0.1265 µM): 1.08; relative viability ([3]; first compound 0.4 µM): 1.09; relative viability ([3]; first compound 1.265 µM): 1.52; relative viability ([4]; first compound 0.04 µM): 1.01; relative viability ([4]; first compound 0.1265 µM): 0.869; relative viability ([4]; first compound 0.4 µM): 0.953; relative viability ([4]; first compound 1.265 µM): 0.981; relative viability ([5]; first compound 0.04 µM): 1.06; relative viability ([5]; first compound 0.1265 µM): 0.922; relative viability ([5]; first compound 0.4 µM): 0.882; relative viability ([5]; first compound 1.265 µM): 0.848; relative viability ([6]; first compound 0.04 µM): 0.578; relative viability ([6]; first compound 0.1265 µM): 0.925; relative viability ([6]; first compound 0.4 µM): 0.802; relative viability ([6]; first compound 1.265 µM): 0.716; relative viability ([7]; first compound 0.04 µM): 0.972; relative viability ([7]; first compound 0.1265 µM): 1.2; relative viability ([7]; first compound 0.4 µM): 0.954; relative viability ([7]; first compound 1.265 µM): 0.792; relative viability ([8]; first compound 0.04 µM): 0.968; relative viability ([8]; first compound 0.1265 µM): 0.902; relative viability ([8]; first compound 0.4 µM): 0.744; relative viability ([8]; first compound 1.265 µM): 0.934; relative viability ([9]; first compound 0.04 µM): 0.26; relative viability ([9]; first compound 0.1265 µM): 0.324; relative viability ([9]; first compound 0.4 µM): 0.262; relative viability ([9]; first compound 1.265 µM): 0.28; relative viability ([10]; first compound 0.04 µM): 0.794; relative viability ([10]; first compound 0.1265 µM): 0.823; relative viability ([10]; first compound 0.4 µM): 0.765; relative viability ([10]; first compound 1.265 µM): 0.338; relative viability ([11]; first compound 0.04 µM): 0.218; relative viability ([11]; first compound 0.1265 µM): 0.216; relative viability ([11]; first compound 0.4 µM): 0.212; relative viability ([11]; first compound 1.265 µM): 0.187; relative viability ([12]; first compound 0.04 µM): 0.731; relative viability ([12]; first compound 0.1265 µM): 0.758; relative viability ([12]; first compound 0.4 µM): 0.725; relative viability ([12]; first compound 1.265 µM): 0.529; relative viability ([13]; first compound 0.04 µM): 0.717; relative viability ([13]; first compound 0.1265 µM): 0.611; relative viability ([13]; first compound 0.4 µM): 0.815; relative viability ([13]; first compound 1.265 µM): 0.666; relative viability ([14]; first compound 0.04 µM): 0.966; relative viability ([14]; first compound 0.1265 µM): 1.06; relative viability ([14]; first compound 0.4 µM): 1.01; relative viability ([14]; first compound 1.265 µM): 0.988; relative viability ([15]; first compound 0.04 µM): 0.304; relative viability ([15]; first compound 0.1265 µM): 0.391; relative viability ([15]; first compound 0.4 µM): 0.339; relative viability ([15]; first compound 1.265 µM): 0.302; relative viability ([16]; first compound 0.04 µM): 0.455; relative viability ([16]; first compound 0.1265 µM): 0.633; relative viability ([16]; first compound 0.4 µM): 0.515; relative viability ([16]; first compound 1.265 µM): 0.458; relative viability ([17]; first compound 0.04 µM): 0.788; relative viability ([17]; first compound 0.1265 µM): 0.908; relative viability ([17]; first compound 0.4 µM): 0.705; relative viability ([17]; first compound 1.265 µM): 0.423; relative viability ([18]; first compound 0.04 µM): 1.02; relative viability ([18]; first compound 0.1265 µM): 1.01; relative viability ([18]; first compound 0.4 µM): 0.974; relative viability ([18]; first compound 1.265 µM): 0.857; relative viability ([19]; first compound 0.04 µM): 0.89; relative viability ([19]; first compound 0.1265 µM): 1.09; relative viability ([19]; first compound 0.4 µM): 1.01; relative viability ([19]; first compound 1.265 µM): 0.654; relative viability ([20]; first compound 0.04 µM): 0.673; relative viability ([20]; first compound 0.1265 µM): 0.522; relative viability ([20]; first compound 0.4 µM): 0.796; relative viability ([20]; first compound 1.265 µM): 0.344; relative viability ([21]; first compound 0.04 µM): 0.92; relative viability ([21]; first compound 0.1265 µM): 1.4; relative viability ([21]; first compound 0.4 µM): 1.11; relative viability ([21]; first compound 1.265 µM): 0.915
